Target: ATP-sensitive inward rectifier potassium channel 1 (Homo sapiens) (UniProt P48048)
Test: PubChem AID 1922
Details: HEK-293 ROMK whole-cell patch clamp, % block, stronger effect = higher value

ATP-sensitive inward rectifier potassium channel 1 (Homo sapiens), sequence (P48048 whole entry, looked up): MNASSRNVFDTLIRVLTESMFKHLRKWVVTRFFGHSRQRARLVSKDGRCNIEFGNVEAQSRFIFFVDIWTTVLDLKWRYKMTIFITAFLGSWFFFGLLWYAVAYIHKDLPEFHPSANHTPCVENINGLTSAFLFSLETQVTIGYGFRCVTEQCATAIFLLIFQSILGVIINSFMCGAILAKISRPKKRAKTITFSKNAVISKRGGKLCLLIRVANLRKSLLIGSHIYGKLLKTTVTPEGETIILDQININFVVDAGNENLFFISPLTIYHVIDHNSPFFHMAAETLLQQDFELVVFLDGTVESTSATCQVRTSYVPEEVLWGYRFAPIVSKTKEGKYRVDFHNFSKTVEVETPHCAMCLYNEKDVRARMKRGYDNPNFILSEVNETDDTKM

## O=[N+]([O-])c1ccc(CN2CCOCCOCCN(Cc3ccc([N+](=O)[O-])cc3)CCOCC2)cc1
ROMK block, at 1 µM
  inhibition: 63.4%
ROMK block, at 3 µM
  inhibition: 78.2%
At 10 µM
  inhibition: 95.3%

## O=[N+]([O-])c1ccc2nc(COCc3nc4ccc([N+](=O)[O-])cc4[nH]3)[nH]c2c1
ROMK block, at 1 µM
  inhibition: 62.6%
ROMK block, at 3 µM
  inhibition: 78.3%
At 10 µM
  inhibition: 88.7%

From PubChem BioAssay AID1922 (Vanderbilt High Throughput Screening Facility, 2009)
